The source of these data is article doi:10.1101/2024.07.10.602890, “H105A peptide eye drops promote photoreceptor survival in murine and human models of retinal degeneration” (bioRxiv, 2024).

In test [1] the test system is rd10 and rd10/Serpinf1−/− mice. As to the kind of experiment: BAX and BCL2 immunofluorescence of retinal sections after peptide eye drops. Conditions: eye drops 1 mg/ml, vs vehicle, five retinas per group. The class given is in vivo, mouse. As for the experimental part:
Fig. 3: Eyedrops of 17-mer and H105A peptides decreased the BAX/BCL2 ratio in photoreceptors of rd10 and rd10/Serpinf1−/− mice (A and B) Immunostaining of retinas. Representative fluorescent micrographs of retinas from rd10 (A) and rd10/Serpinf1^−/− (B) mice treated with 17-mer or H105A peptides at 1 mg/ml via eye drops, along with vehicle-treated controls. Immunostaining was performed with antibodies against BAX or BCL2 (green), and DAPI (blue). Histograms show quantification of immunofluorescence intensity for BAX and BCL2 markers. […] Each individual data point represents the average of one retina, with statistical significance determined by unpaired t-test (***p < 0.0001, ****p < 0.00001). Scale bar = 40 μm.
(§1) Both eyes were oriented before enucleation to allow sectioning along the dorsal/ventral axis. Enucleated eyes from rd10 and rd10 × Serpinf1^−/− mice were incised in the cornea and fixed in 2.5% glutaraldehyde for 20 min and then in 10% neutral buffered formalin at 4°C for at least 48 h, followed by paraffin embedding, sectioning, and staining with either H&E or immunofluorescence procedures, as previously described ([28]). For fluorescence microscopy, antibodies, and 0.1 μg/ml DAPI were used to immunostain and nuclei counterstain the sections, respectively. Antibodies used in the study are in Table S3. Images were acquired using a ZEIS 700 confocal microscope. Fluorescence intensity was quantified using ImageJ as previously described ([14], [26]).

The test system of test [2] is rd10 and rd10/Serpinf1−/− mice. As to the kind of experiment: Retinal histology (H&E), OS length and ONL thickness spider plots after peptide eye drops. The class given is in vivo, mouse. To be noted: for outer nuclear layer (ONL) thickness vs vehicle-treated or untreated eyes / photoreceptor outer segment (OS) length vs vehicle-treated or untreated eyes / ONL thickness (spider plots): daily eye drops 1 mg/ml, P21; for outer nuclear layer (ONL) thickness vs vehicle-treated or untreated eyes / photoreceptor outer segment (OS) length vs vehicle-treated or untreated eyes: rd10 and rd10/Serpinf1−/− mice; for ONL thickness (spider plots): rd10 mice only. As for the experimental part:
Fig. 4: Effect of eyedrops of 17-mer and H105A peptides on photoreceptor morphology of rd10 and rd10/Serpinf1−/− mice (A and B) Histological Evaluation. Representative microphotographs of retina sections from rd10 (A) and rd10/Serpinf1−/− (B) mice treated with 17-mer, H105A, or R99A peptides at 1 mg/ml, or with vehicle (HBSS), compared to wild type C57Bl/6J mice. Sections were stained with hematoxylin and eosin. Spider Plot illustrate the thickness of the outer nuclear layer (ONL) in rd10 (C) and rd10/Serpinf1−/− (D) mice. Five retinas per group were analyzed and each data point represents the average ± SEM per location relative to the optic nerve (ON), analyzed using One-way ANOVA. Statistics for comparisons between H105A and vehicle is indicated by #p < 0.05, #p < 0.05, ##p < 0.01, ###p < 0.001). Statistics for comparisons between H105A and 17-mer is indicated by *p < 0.05. Scale bar = 50 μm.
as §1
To generate spider plots, the ONL thickness was measured from images acquired with light microscopy of the retina sections stained with H&E or images of retina sections stained with DAPI with a dorsal-ventral orientation. The ONL thickness in the entire retina sections was measured at 5 different positions from both sides of the optic nerve (ON) using ImageJ, as described before ([28]). Alternatively, for DAPI stained images, a customed macro implemented in ImageJ was used to select only the ONL.
Figure S2. Effects of extending the timeline or administering eye drops of 17-mer[H105A] peptide every other day in rd10 mic e.
Eye drops of H105A peptide solution were administered to r d1 0 mice either daily (Fig. S2A) or every other day (Fi g. S 2D). A total of 5 µl of a solution containing H105A peptide at 1 mg/ml in HBSS were applied as eye drops. The vehicle HBSS was added as eye drops in the contralateral eyes. […]
ONL thickness in r d10 mice compared to vehicle was also observed (Fi g. S 2E), with an improvement in a- […]
efficacy of peptide H105A eye drops either daily or every other day in an extended timeline to stabilize photoreceptor morphology and light response function loss in r d10 mice, however, these were less efficacious than daily H105A peptide eye drops.
(A) Scheme showing a timeline of peptide administration via daily eye drops of H105A peptide to r d10 mice between P15 and P2 4. […]
(B) Representative microphotographs of retinal cross sections of r d1 0 treated as in Fig. S2A and stained with hematoxylin and eosin are shown. […]
(D) Scheme showing a timeline of peptide administration via eye drops of H105A peptide to rd10 mice starting at P15 every other day until P23. Assays were at P25.
(E) Representative microphotographs of retinal cross sections of r d1 0 treated as in Fig. S2D and stained […]
average ± SD per location relative to the ON per genotype by unpaired t-test. *p < 0.05, […]
(F) ERG of r d1 0 mice at P25 and treated as in Fig. S2D were performed in response to a STR. […]

Ends that are not written are not given here.

With QRTESIIHRALYYDLIS [17-mer], in test [1], the “BAX level in photoreceptors (immunofluorescence)” value is reported as “significantly decreased” and the “BCL2 level in photoreceptors (immunofluorescence)” value is reported as “increased”. In addition, in test [2], the “outer nuclear layer (ONL) thickness vs vehicle-treated or untreated eyes” value is “thicker outer nuclear layer”, the “photoreceptor outer segment (OS) length vs vehicle-treated or untreated eyes” value was “longer OS” and the “ONL thickness (spider plots)” value was “restored ONL thickness”.

For QRTESIIARALYYDLIS [H105A], in test [1], the “BAX level in photoreceptors (immunofluorescence)” value is “significantly decreased” and the “BCL2 level in photoreceptors (immunofluorescence)” value is recorded as “increased”. In test [2], the “outer nuclear layer (ONL) thickness vs vehicle-treated or untreated eyes” value is “thicker outer nuclear layer”, the “photoreceptor outer segment (OS) length vs vehicle-treated or untreated eyes” value is “longer OS” and the “ONL thickness (spider plots)” value is “to almost wild-type levels”. In addition, in test [2] (rd10 mice, daily eye drops 5 μl of 1 mg/ml P15 until P24, assayed at P25), the ONL thickness result is recorded as “rescue in the ONL thickness”. In test [2] (rd10 mice, eye drops every other day P15 until P23, assayed at P25), the “ONL thickness compared to vehicle” value is reported as “rescue”.
